Results as given in paper PMC5520929, “Bilirubin neurotoxicity is associated with proteasome inhibition” (Cell Death & Disease, 2017).

Biological target: T1, 20S proteasome chymotrypsin-like (CT-like) peptidase (Homo sapiens, UniProt P28074)
T1 construct: gene PSMB5; purified human 20S proteasomes; with 20S proteasome
T1 sequence (P28074 60-263): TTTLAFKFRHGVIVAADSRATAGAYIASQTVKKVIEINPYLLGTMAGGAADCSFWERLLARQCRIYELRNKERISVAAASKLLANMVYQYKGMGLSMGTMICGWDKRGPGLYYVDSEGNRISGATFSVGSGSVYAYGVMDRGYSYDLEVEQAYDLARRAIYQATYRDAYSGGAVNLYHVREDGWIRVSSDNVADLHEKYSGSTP
Experiment: fluorogenic Suc-LLVY-AMC peptidase assay on purified human
Assay type: biochemical

IC50: ~20 µM
Compound: C=CC1=C(C)/C(=C/c2[nH]c(Cc3[nH]c(/C=C4\NC(=O)C(C)=C4C=C)c(C)c3CCC(=O)O)c(CCC(=O)O)c2C)NC1=O [Bil, bilirubin]
